Laboratory results reported in US7534887B2, “Thiazoline derivative and use of the same” (Takeda Pharmaceutical Company Limited, priority 2003, dated 2009).
Structures can show the parent of a compound that is named as a salt.

These compounds were tested against human FXa (Homo sapiens, UniProt P00742) (assay: Inhibitory action of human activated blood coagulation factor X (FXa)). Settings: concentration inhibiting FXa activity by 50%; substrate S-2765, 37° C., absorbance at 405 nm.
Assay type: biochemical
Description: (1) Inhibitory Action of Human Activated Blood Coagulation Factor X (FXa):
Test method: A solution (225 μL) of 0.05M tris-hydrochloric acid buffers (pH=8.3) containing 0.145 M of sodium chloride and 2 mM of calcium chloride, a test compound dissolved in dimethyl sulfoxide (5 μL) and human FXa (10 μL, 0.3 unit/ml) were added to a 96-well microplate and reacted at 37° C. for about 10 minutes, and then a substrate (10 μL, 3 mM, S-2765) was added to be reacted at 37° C. for 10 minutes. Then, after aqueous 50% acetic acid (25 μL) was added there to stop the reaction, the change of absorbance at 405 nm was measured by a microplatereader, and a concentration inhibiting FXa activity by 50% (IC50) was calculated.

Sequence of human FXa (P00742 235-488 limits assumed): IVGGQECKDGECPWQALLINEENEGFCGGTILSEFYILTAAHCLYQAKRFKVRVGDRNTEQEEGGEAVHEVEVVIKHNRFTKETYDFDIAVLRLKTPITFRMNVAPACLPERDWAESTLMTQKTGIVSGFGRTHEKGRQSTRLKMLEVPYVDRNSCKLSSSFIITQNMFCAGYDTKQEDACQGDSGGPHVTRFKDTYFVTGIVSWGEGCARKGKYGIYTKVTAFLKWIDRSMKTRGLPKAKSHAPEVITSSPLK
Sequence of human FXa (P00742 41-179 partner limits assumed): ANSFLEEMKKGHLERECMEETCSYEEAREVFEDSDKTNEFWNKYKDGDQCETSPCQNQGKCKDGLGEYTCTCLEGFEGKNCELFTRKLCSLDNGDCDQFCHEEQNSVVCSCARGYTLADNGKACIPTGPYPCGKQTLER

**Q.** With `C/N=c1\scc(CN2CCN(C(=O)CCS(=O)(=O)c3ccc4cc(Cl)ccc4c3)CC2)n1C` [Example 5, N-((2Z)-4-((4-(3-((6-Chloro-2-naphthyl)sulfonyl)propanoyl)-1-piperazinyl)methyl)-3-methyl-1,3-thiazol-2(3H)-ylidene)-N-methylamine dihydrochloride] as the compound, how does the IC50 read?
**A.** 57 nM

**Q.** How did the IC50 turn out when `Cn1c(CN2CCN(C(=O)CCS(=O)(=O)c3ccc4cc(Cl)ccc4c3)CC2)csc1=N` [Example 12, 4-((4-(3-((6-Chloro-2-naphthyl)sulfonyl)propanoyl)-1-piperazinyl)methyl)-3-methyl-1,3-thiazol-2(3H)-imine dihydrochloride] was run?
**A.** 22 nM

**Q.** How did the IC50 turn out when `C/N=c1\sc(C2CCN(C(=O)CCS(=O)(=O)c3ccc4cc(Cl)ccc4c3)CC2)c(CO)n1C` [Example 38] was run?
**A.** 11 nM

**Q.** For `COC(=O)C1CN(CC2=CSC3=NCCN23)CCN1C(=O)CCS(=O)(=O)c1ccc2cc(Cl)ccc2c1` (stereo not shown) [Example 44, Methyl 1-(3-((6-chloro-2-naphthyl)sulfonyl)propanoyl)-4-(5,6-dihydroimidazo[2,1-b][1,3]thiazol-3-ylmethyl)piperazine-2-carboxylate], which IC50 is on record?
**A.** 14 nM

**Q.** Which IC50 does the source give for `Cn1cc(C2CCN(C(=O)CCS(=O)(=O)c3ccc4cc(Cl)ccc4c3)CC2)sc1=N` [Example 58, 5-(1-(3-((6-Chloro-2-naphthyl)sulfonyl)propanoyl)-4-piperidinyl)-3-methyl-1,3-thiazol-2(3H)-imine] here?
**A.** 60 nM

**Q.** `C/N=c1\sc(C2CCN(C(=O)CCS(=O)(=O)c3ccc4cc(Cl)ccc4c3)CC2)c(C(=O)O)n1C` [Example 68, (2Z)-5-(1-(3-((6-Chloro-2-naphthyl)sulfonyl)propanoyl)-1-piperidinyl)-3-methyl-2-(methylimino)-2,3-dihydro-1,3-thiazole-4-carboxylic acid] was tested. Which IC50 did it give?
**A.** 8.3 nM

**Q.** With `C/N=c1\sc(C2CCN(C(=O)CCS(=O)(=O)c3ccc4cc(Cl)ccc4c3)CC2)c(C(=O)OC)n1C` [Example 77, Methyl (2Z)-5-(1-(3-((6-chloro-2-naphthyl)sulfonyl)propanoyl)-1-piperidinyl)-3-methyl-2-(methylimino)-2,3-dihydro-1,3-thiazol-4-carboxylate] as the compound, how does the IC50 read?
**A.** 9.4 nM

**Q.** `C/N=c1\sccn1CCC1CCN(C(=O)CCS(=O)(=O)c2ccc3cc(Cl)ccc3c2)CC1` [Example 83] was tested. Which IC50 did it give?
**A.** 6.7 nM

**Q.** With `O=C(CCS(=O)(=O)c1ccc2cc(Cl)ccc2c1)N1CCC(/N=c2\sccn2CCO)CC1` [Example 92, 2-((2Z)-2-((1-(3-((6-Chloro-2-naphthyl)sulfonyl)propanoyl)-4-piperidinyl)imino)-1,3-thiazol-3(2H)-yl)ethanol] as the compound, how does the IC50 read?
**A.** 47 nM

**Q.** With “N-((2Z)-5-(1-(3-((6-Chloro-2-naphthyl)sulfonyl)propanoyl)-1-piperidinyl)-3-methyl-1,3-thiazol-2(3H)-ylidene)-N-methylamine [Example 46]” as the compound, how does the IC50 read?
**A.** 30 nM
